Assay results as given in US10597388B2, “Pyridazinone herbicides” (FMC CORPORATION, priority 2014, dated 2020).

Experiments:
Assay type in all cases: in vivo
[1] = tested on: wheat, spring (spring wheat, Triticum aestivum); assay: Test D controlled growth environment herbicide test, pre- and postemergence
Summary of the method: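 Species sown in silt loam and sprayed preemergence, or grown in peat-based medium to 2–18 cm (1- to 4-leaf stage) and sprayed postemergence, with compounds in non-phytotoxic solvent plus surfactant. Visual injury scored versus controls after 14–21 d in a controlled environment, 0 (no effect) to 100 (complete control).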

[2] = tested on: panicum, fall (fall panicum, Panicum dichotomiflorum); assay: Test E greenhouse herbicide test, pre- and postemergence; conditions: Preemergence
Description: (§1) Seeds of plant species selected from corn (Zea mays), soybean (Glycine max), velvetleaf (Abutilon theophrasti), lambsquarters (Chenopodium album), wild poinsettia (Euphorbia heterophylla), pigweed, palmer (palmer pigweed, Amaranthus palmeri), waterhemp (common waterhemp, Amaranthus rudis), surinam grass (Brachiaria decumbens), crabgrass, large (large crabgrass, Digitaria sanguinalis), crabgrass, Brazilian (Brazilian crabgrass, Digitaria horizontalis), panicum, fall (fall panicum, Panicum dichotomiflorum), foxtail, giant (giant foxtail, Setaria faberii), foxtail, green (green foxtail, Setaria viridis), goosegrass (Eleusine indica), johnsongrass (Sorghum halepense), ragweed (common ragweed, Ambrosia elatior), barnyardgrass (Echinochloa crus-galli), sandbur (southem sandbur, Cenchrus echinatus), arrowleaf sida (Sida rhombifolia), Italian ryegrass (Lolium multiflorum), dayflower (Virginia (VA) dayflower, Commelina virginica), field bindweed (Convolvulus arvensis), momingglory (Ipomoea coccinea), nightshade (eastern black nightshade, Solanum ptycanthum), kochia (Kochia scoparia), nutsedge, yellow (yellow nutsedge, Cyperus esculentus), horseweed (Conyza canadensis), and beggarticks (hairy beggarticks, Bidens pilosa), were planted into a silt loam soil and treated preemergence with test chemicals formulated in a non-phytotoxic solvent mixture which included a surfactant.
(§2) At the same time, plants from these crop and weed species and also waterhemp_RES1, (ALS & Triazine resistant common waterhemp, Amaranthus rudis), and waterhemp_RES2, (ALS & HPPD resistant common waterhemp, Amaranthus rudis) were planted in pots containing Redi-Earth® planting medium (Scotts Company, 14111 Scottslawn Road, Marysville, Ohio 43041) comprising spaghnum peat moss, vermiculite, wetting agent and starter nutrients were treated with postemergence applications of test chemicals formulated in the same manner. Plants ranged in height from 2 to 18 cm for postemergence treatments (1- to 4-leaf stage). Treated plants and controls were maintained in a greenhouse for 14 to 21 d, after which time all species were compared to controls and visually evaluated. Plant response ratings, summarized in Table E, are based on a scale of 0 to 100 where 0 is no effect and 100 is complete control. A dash (-) response means no test result.

[3] = tested on: dayflower (Virginia (VA) dayflower, Commelina virginica); assay: as above; conditions: Preemergence
Description: as §1, §2

soybean (Glycine max) = assay: as above; conditions: Preemergence
Description: as §1, §2

[4] = tested on: beggarticks (hairy beggarticks, Bidens pilosa); assay: as above; conditions: Preemergence
Description: as §1, §2

[5] = tested on: momingglory (Ipomoea coccinea); assay: as above; conditions: Preemergence
Description: as §1, §2

[6] = tested on: lambsquarters (Chenopodium album); assay: as above; conditions: Preemergence
Description: as §1, §2

[7] = tested on: field bindweed (Convolvulus arvensis); assay: as above; conditions: Preemergence
Description: as §1, §2

[8] = tested on: arrowleaf sida (Sida rhombifolia); assay: as above; conditions: Preemergence
Description: as §1, §2

[9] = 62 g ai/ha, scale 0 to 100 (0 no effect, 100 complete control)
[10] = 125 g ai/ha, scale 0 to 100 (0 no effect, 100 complete control)
[11] = 31 g ai/ha, scale 0 to 100, 0 no effect, 100 complete control
[12] = 250 g ai/ha, visual, scale 0 no effect to 100 complete control

C#CCOC(=O)Oc1c(C)nn(C)c(=O)c1-c1c(C)sc2ccc(C)cc12 [Compound 87]
Wheat, Spring plant response rating ([1]; Postemergence, 31 g ai/ha, scale 0 to 100 (0 no effect, 100 complete control)): 0 | Plant response rating, Wheat, Spring ([1]; Postemergence, 125 g ai/ha, visual rating on scale 0 (no effect) to 100 (complete control), 14 to 21 d): 5 | Plant response rating, Wheat, Spring ([1]; Postemergence, 250 g ai/ha, scale 0 to 100 (0 no effect, 100 complete control)): 10 | Plant response rating (scale of 0 to 100), Wheat, Spring ([1]; Preemergence, 31 g ai/ha): 0 | Plant response rating (scale of 0 to 100), Wheat, Spring ([1]; Preemergence, 62 g ai/ha): 0 | Plant response rating, Wheat, Spring ([1]; Preemergence, 125 g ai/ha, scale 0 to 100 (0 no effect, 100 complete control)): 15 | Plant response rating, Wheat, Spring ([1]; Preemergence, 250 g ai/ha, scale 0 to 100 (0 no effect, 100 complete control)): 20 | Plant response rating, Wheat, Spring ([1]; postemergence, 62 g ai/ha, scale 0 to 100, 0 no effect, 100 complete control): 0 | Plant response rating, Panicum, Fall [2, 9]: 90 | Plant response rating, Panicum, Fall [2, 10]: 100 | Plant response rating, Panicum, Fall [2, 11]: 95 | Plant response rating, Panicum, Fall [2, 12]: 98 | Plant response rating, Dayflower, VA [3, 9]: 0 | Plant response rating, Dayflower, VA [3, 10]: 10 | Plant response rating, Dayflower, VA [3, 11]: 0 | Plant response rating, Dayflower, VA [3, 12]: 35 | Plant response rating, Soybean (soybean (Glycine max); [9]): 0 | Plant response rating, Soybean (soybean (Glycine max); [10]): 0 | Plant response rating, Soybean (soybean (Glycine max); [11]): 0 | Plant response rating, Soybean (soybean (Glycine max); [12]): 0 | Plant response rating, Beggarticks [4, 9]: 100 | Plant response rating, Beggarticks [4, 10]: 100 | Plant response rating, Beggarticks [4, 11]: 90 | Plant response rating, Beggarticks [4, 12]: 100 | Plant response rating, Morningglory [5, 9]: 35 | Plant response rating, Morningglory [5, 10]: 50 | Plant response rating, Morningglory [5, 11]: 20 | Plant response rating, Morningglory [5, 12]: 90 | Plant response rating, Lambsquarters [6, 9]: 100 | Plant response rating, Lambsquarters [6, 10]: 100 | Plant response rating, Lambsquarters [6, 11]: 100 | Plant response rating, Lambsquarters [6, 12]: 100 | Plant response rating, Field Bindweed [7, 9]: 98 | Plant response rating, Field Bindweed [7, 10]: 95 | Plant response rating, Field Bindweed [7, 11]: 40 | Plant response rating, Field Bindweed [7, 12]: 100 | Plant response rating, Arrowleaf Sida [8, 9]: 60 | Plant response rating, Arrowleaf Sida [8, 10]: 70 | Plant response rating, Arrowleaf Sida [8, 11]: 0 | Plant response rating, Arrowleaf Sida [8, 12]: 80
